US20240285634A1, “COMPOUND AND METHOD FOR TREATING CHEMOTHERAPY-ASSOCIATED GASTROINTESTINAL SIDE EFFECTS” (ONQUALITY PHARMACEUTICALS CHINA LTD., priority 2021, published 2024)

Tested on: Chemotherapeutic agent-caused diarrhea models of Balb/c mice
Test: Relieving effect on diarrhea caused by a chemotherapeutic agent (Examples 1-201)
Type: in vivo
Excerpt: Construction of mouse animal models: Chemotherapeutic agent-caused diarrhea models of Balb/c mice were constructed according to the administration mode and frequency of the chemotherapeutic agent as shown in Table 3. After administration for several days, mice developed different extents of diarrhea symptoms (as shown in FIG. 1), which were similar to the conditions in human. Thus, chemotherapeutic agent-caused diarrhea models of mice are very good models to mimic diarrhea in human caused by the chemotherapeutic agent.
Balb/c mice were fed for 1 week, and then divided into groups. The experiment was divided into a control group, a chemotherapeutic agent group, and a group of the compound as shown in Formula I, each of which comprised 10 mice, to perform the administration experiment, for which the administration dosage, mode, time and frequency were shown in Table 3. The control group: being injected or intragastrically administered with the same solvent as that used in the group of the compound as shown in Formula I (the injection mode and time were shown in Table 3), and then being injected or intragastrically administered with the same solvent as that used in the chemotherapeutic agent group (the administration mode was shown in Table 3); the chemotherapeutic agent group: being injected or intragastrically administered with the same solvent as that used in the group of the compound as shown in Formula I (the administration mode and time were shown in Table 3), and then being injected or intragastrically administered with the chemotherapeutic agent (the type, administration mode and dosage were shown in Table 3); the group of the compound as shown in Formula I: being injected or intragastrically administered with the compound as shown in Formula I (the administration mode and time were shown in Table 3), and then being administered with the chemotherapeutic agent (the administration mode and dosage were shown in Table 3).
The scoring of diarrhea can refer to the method of Akinobu Kurita (Cancer Chemother Pharmacol 2000; 46:211-20.), Grade 0: normal feces; Grade 1: mild diarrhea, the stools is slightly wet and soft; Grade 2: moderate diarrhea, loose stools and mild perianal contamination; Grade 3: severe diarrhea, watery stools and accompanied by severe perianal staining (see FIG. 1). It is regarded as effective remission when the diarrhea grading of mice in the group of the compound as shown in Formula I is reduced compared with the average diarrhea grading of mice in the chemotherapeutic agent group.
The diarrhea grading of mice was observed and recorded every day. At the end of the experiment, the number of mice in the group of the compound as shown in Formula I whose diarrhea grading was lower than that of mice in the chemotherapeutic agent group was recorded. Table 3 lists various animal experiment combinations of chemotherapeutic agents and the compound as shown in Formula I, as well as the corresponding experimental results. (Relative remission rate %=the number of mice in the group of the compound as shown in Formula I whose diarrhea has been effectively relieved/the total number of mice in the group of the compound as shown in Formula I*100%. The establishment rate of diarrhea model in the chemotherapeutic agent group was 50%-70%, that is, about 5-7 of 10 mice developed diarrhea during the experiment, and there were cases of individual mice death or not developing diarrhea.)

`CN1CCN(c2ccc(Nc3ncc4cc5n(c4n3)C3(CCCCC3)CNC5=O)nc2)CC1` [Compound I, Trilaciclib] gave a Relative remission rate (Ex 1, 5-Fu 125 mg/kg intraperitoneal single, compound 100 mg/kg intravenous single 0.5 h before, cycle 10 days) of 70%, a Relative remission rate (Ex 2, 5-Fu 125 mg/kg intraperitoneal single, compound 100 mg/kg intravenous single 1 h before, cycle 10 days) of 70% and a Relative remission rate (Ex 3, 5-Fu 125 mg/kg intraperitoneal single, compound 100 mg/kg intravenous single 2 h before, cycle 10 days) of 60%. It also gave a Relative remission rate (Ex 4, 5-Fu 125 mg/kg intraperitoneal single, compound 100 mg/kg intravenous single 3 h before, cycle 10 days) of 60%, a Relative remission rate (Ex 5, 5-Fu 125 mg/kg intraperitoneal single, compound 100 mg/kg intravenous single 4 h before, cycle 10 days) of 60% and a Relative remission rate (Ex 6, 5-Fu 125 mg/kg intraperitoneal single, compound 100 mg/kg intravenous single 5 h before, cycle 10 days) of 40%. The Relative remission rate (Ex 7, 5-Fu 125 mg/kg intraperitoneal single, compound 100 mg/kg intravenous single 6 h before, cycle 10 days) was 40%, the Relative remission rate (Ex 8, 5-Fu 125 mg/kg intraperitoneal single, compound 100 mg/kg intravenous single 7 h before, cycle 10 days) was 40% and the Relative remission rate (Ex 9, 5-Fu 125 mg/kg intraperitoneal single, compound 100 mg/kg intravenous single 8 h before, cycle 10 days) was 50%. The Relative remission rate (Ex 10, 5-Fu 125 mg/kg intraperitoneal single, compound 100 mg/kg intravenous single 9 h before, cycle 10 days) was 40%, the Relative remission rate (Ex 11, 5-Fu 125 mg/kg intraperitoneal single, compound 100 mg/kg intravenous single 10 h before, cycle 10 days) was 50% and the Relative remission rate (Ex 12, 5-Fu 125 mg/kg intraperitoneal single, compound 100 mg/kg intravenous single 11 h before, cycle 10 days) was 40%. The Relative remission rate (Ex 13, 5-Fu 125 mg/kg intraperitoneal single, compound 12.5 mg/kg intravenous single 12 h before, cycle 10 days) was 30%, the Relative remission rate (Ex 14, 5-Fu 125 mg/kg intraperitoneal single, compound 25 mg/kg intravenous single 12 h before, cycle 10 days) was 40% and the Relative remission rate (Ex 15, 5-Fu 125 mg/kg intraperitoneal single, compound 50 mg/kg intravenous single 12 h before, cycle 10 days) was 60%. It also gave a Relative remission rate (Ex 16, 5-Fu 125 mg/kg intraperitoneal single, compound 100 mg/kg intravenous single 12 h before, cycle 10 days) of 70%, a Relative remission rate (Ex 17, 5-Fu 125 mg/kg intraperitoneal single, compound 150 mg/kg intravenous single 12 h before, cycle 10 days) of 50% and a Relative remission rate (Ex 18, 5-Fu 125 mg/kg intraperitoneal single, compound 240 mg/kg intravenous single 12 h before, cycle 10 days) of 50%. For the same molecule, the Relative remission rate (Ex 86, Oxaliplatin 17.5 mg/kg intravenous single, compound 150 mg/kg intravenous single 20 h before, cycle 8 days) was 40%, the Relative remission rate (Ex 87, Oxaliplatin 17.5 mg/kg intravenous single, compound 150 mg/kg intravenous single 24 h before, cycle 8 days) was 50% and the Relative remission rate (Ex 88, Oxaliplatin 17.5 mg/kg intravenous single, compound 150 mg/kg intravenous single 48 h before, cycle 8 days) was 0%. For the same molecule, the Relative remission rate (Ex 92, Irinotecan (CPT-11) 240 mg/kg intraperitoneal single, compound 100 mg/kg intravenous single 0.5 h before, cycle 7 days) was 50%, the Relative remission rate (Ex 93, Irinotecan (CPT-11) 240 mg/kg intraperitoneal single, compound 100 mg/kg intravenous single 1 h before, cycle 7 days) was 50% and the Relative remission rate (Ex 94, Irinotecan (CPT-11) 240 mg/kg intraperitoneal single, compound 100 mg/kg intravenous single 2 h before, cycle 7 days) was 50%. For the same molecule, the Relative remission rate (Ex 95, Irinotecan (CPT-11) 240 mg/kg intraperitoneal single, compound 100 mg/kg intravenous single 3 h before, cycle 7 days) was 40%, the Relative remission rate (Ex 96, Irinotecan (CPT-11) 240 mg/kg intraperitoneal single, compound 100 mg/kg intravenous single 4 h before, cycle 7 days) was 50% and the Relative remission rate (Ex 97, Irinotecan (CPT-11) 240 mg/kg intraperitoneal single, compound 100 mg/kg intravenous single 5 h before, cycle 7 days) was 40%. The Relative remission rate (Ex 98, Irinotecan (CPT-11) 240 mg/kg intraperitoneal single, compound 100 mg/kg intravenous single 6 h before, cycle 7 days) was 40%, the Relative remission rate (Ex 99, Irinotecan (CPT-11) 240 mg/kg intraperitoneal single, compound 100 mg/kg intravenous single 7 h before, cycle 7 days) was 70% and the Relative remission rate (Ex 100, Irinotecan (CPT-11) 240 mg/kg intraperitoneal single, compound 100 mg/kg intravenous single 8 h before, cycle 7 days) was 70%. It also gave a Relative remission rate (Ex 101, Irinotecan (CPT-11) 240 mg/kg intraperitoneal single, compound 100 mg/kg intravenous single 9 h before, cycle 7 days) of 60%, a Relative remission rate (Ex 102, Irinotecan (CPT-11) 240 mg/kg intraperitoneal single, compound 100 mg/kg intravenous single 10 h before, cycle 7 days) of 40% and a Relative remission rate (Ex 103, Irinotecan (CPT-11) 240 mg/kg intraperitoneal single, compound 100 mg/kg intravenous single 11 h before, cycle 7 days) of 60%. For the same molecule, the Relative remission rate (Ex 104, Irinotecan (CPT-11) 240 mg/kg intraperitoneal single, compound 100 mg/kg intravenous single 12 h before, cycle 7 days) was 60%, the Relative remission rate (Ex 105, Irinotecan (CPT-11) 240 mg/kg intraperitoneal single, compound 100 mg/kg intravenous single 14 h before, cycle 7 days) was 50% and the Relative remission rate (Ex 106, Irinotecan (CPT-11) 240 mg/kg intraperitoneal single, compound 100 mg/kg intravenous single 16 h before, cycle 7 days) was 70%. It also gave a Relative remission rate (Ex 107, Irinotecan (CPT-11) 240 mg/kg intraperitoneal single, compound 100 mg/kg intravenous single 18 h before, cycle 7 days) of 70%, a Relative remission rate (Ex 108, Irinotecan (CPT-11) 240 mg/kg intraperitoneal single, compound 100 mg/kg intravenous single 20 h before, cycle 7 days) of 40% and a Relative remission rate (Ex 109, Irinotecan (CPT-11) 240 mg/kg intraperitoneal single, compound 100 mg/kg intravenous single 22 h before, cycle 7 days) of 40%. For the same molecule, the Relative remission rate (Ex 110, Irinotecan (CPT-11) 240 mg/kg intraperitoneal single, compound 100 mg/kg intravenous single 24 h before, cycle 7 days) was 30%, the Relative remission rate (Ex 111, Irinotecan (CPT-11) 240 mg/kg intraperitoneal single, compound 100 mg/kg intravenous single 48 h before, cycle 7 days) was 0% and the Relative remission rate (Ex 118, Irinotecan (CPT-11) 300 mg/kg oral single, compound 100 mg/kg intraperitoneal single 12 h before, cycle 11 days) was 50%. It also gave a Relative remission rate (Ex 119, Irinotecan (CPT-11) 250 mg/kg intramuscular single, compound 100 mg/kg intramuscular single 1 h before, cycle 7 days) of 70%, a Relative remission rate (Ex 120, Irinotecan (CPT-11) 200 mg/kg intravenous single, compound 100 mg/kg intravenous single 0. h before, cycle 7 days) of 70% and a Relative remission rate (Ex 121, Fluorouracil 100 + irinotecan 200 mg/kg intravenous single, compound 100 mg/kg intravenous single 0.5 h before, cycle 10 days) of 70%. It also gave a Relative remission rate (Ex 122, Fluorouracil 100 + irinotecan 200 mg/kg intravenous single, compound 100 mg/kg intravenous single 4 h before, cycle 10 days) of 40%, a Relative remission rate (Ex 123, Fluorouracil 100 + irinotecan 200 mg/kg intravenous single, compound 100 mg/kg intravenous single 8 h before, cycle 10 days) of 50% and a Relative remission rate (Ex 124, Fluorouracil 100 + irinotecan 200 mg/kg intravenous single, compound 100 mg/kg intravenous single 12 h before, cycle 10 days) of 50%. The Relative remission rate (Ex 125, Fluorouracil 100 + irinotecan 200 mg/kg intravenous single, compound 100 mg/kg intravenous single 24 h before, cycle 10 days) was 30%, the Relative remission rate (Ex 126, Fluorouracil 100 + irinotecan 200 mg/kg intravenous single, compound 100 mg/kg intravenous single 48 h before, cycle 10 days) was 0% and the Relative remission rate (Ex 127, Fluorouracil 100 + irinotecan 200 mg/kg intraperitoneal single, compound 100 mg/kg intraperitoneal single 1 h before, cycle 8 days) was 40%. For the same molecule, the Relative remission rate (Ex 128, Fluorouracil 100 + irinotecan 200 mg/kg intraperitoneal single, compound 100 mg/kg intraperitoneal single 12 h before, cycle 8 days) was 30%, the Relative remission rate (Ex 129, Fluorouracil 100 + irinotecan 200 mg/kg intraperitoneal single, compound 150 mg/kg oral single 0.5 h before, cycle 8 days) was 40% and the Relative remission rate (Ex 130, Fluorouracil 100 + irinotecan 200 mg/kg intraperitoneal single, compound 150 mg/kg oral single 12 h before, cycle 8 days) was 40%.
